Source: patent publication EP2435019B1, “DODECA-2E,4E-DIENE AMIDES AND THEIR USE AS MEDICAMENTS AND COSMETICS” (Dr. August Wolff GmbH & Co. KG Arzneimittel, priority 2009, dated 2010)
Read-outs that look alike come from different tables or passages of the source.

Tests used:
[1] = test system: Arachidonoylethanolamide Transport (AEAT); test: Cellular uptake of [3H]-AEA in U937 cells (assay C); type: cell-based, Human; settings: Figure 1(b); mean ± SEM of 3 independent experiments; read-out: EC50 value, AEA re-uptake inhibition
Protocol: 5x10^5 cells were collected and suspended in 500 µL of sterile PBS (Sigma, San Louis, MO, US) using glass silanized tubes. Cells were pre-incubated 10 min at 37°C in presence of test compounds in a concentration range of 10^-8 - 10^-4 M or in presence of the same amount of solvent (control). Then a mixture of 50 nM [^3H]-AEA (60 Ci/mmol) (American Radiolabeled Chemicals, Inc., San Louis, MO, US) and 50 nM of nonradioactive AEA (Tocris Cookson Ltd., Bristol, UK) was added and samples were incubated at 37°C for different times in the range of 1-60 min. The reaction was stopped by rapid filtration over Whatman GF/C filters pre-soaked in 0,25 % BSA. […] The filters-bound radioactivity was measured using a Beckman LS6500 scintillation counter. Results were expressed as % of AEA uptake versus cells treated with solvent and the EC50 and IC50 values were calculated from the sigmoidal curves, which were generated using the GraphPad Prism (GraphPad Software, San Diego, CA, US).

[3H]-AEA uptake = Cellular uptake of [3H]-AEA in human primary monocytes (assay C); type: cell-based; settings: Figure 1(a), 1 µM
Protocol: • Figure 1: AEA re-uptake inhibition of 2E,4E-dieneamides 1 and 9 into human primary monocytes and U937 cells. […] Data are mean values ± SEM of 3 independent experiments in a sigmoidal dose-response curve. • Figure 2: Concentration-dependent effects of 4 and 5 on FAAH activity. […] The maximal inhibition (32%) of 5 was measured at 1 µM. Data are mean values ± SEM of 3 independent experiments. • Figure 3: Effects of low nM concentrations of N-alkylamide 7 on FAAH activity alone and in combination with the FAAH inhibitor URB597. […] Data are mean values ± SEM of 3 independent experiments. • Figure 4: 1 and 9 inhibit LPS-induced TNF-alpha release into culture medium (measured by ELISA). Human macrophages (10^6 cells) were stimulated with LPS (500 ng/ml) and treated with UCM707 and/or compounds 1 and 9 at 5 µM for 18 h. N = 3 ± SEM. • Figure 5: UCM707 (positive control) and compounds 1 and 9 diminish NO2^- production. Human macrophages (10^6 cells) were stimulated with LPS (500 ng/ml) and treated with UCM707 and/or compounds 1 and 9 at 5 µM for 18 h. Culture supernatants were assayed for nitrite levels, using the Griess reagent as a reflection of NO production. […]
Human lymphoma U937 cells were grown in RPMI 1640 medium (Invitrogen, Basel, Switzerland) supplemented with 10% fetal bovine serum, […] fungizone (amphotericin B), 100 units/ml penicillin, 100 µg/ml streptomycin, and 2 mM L-glutamine (all from Invitrogen) and selected for the cellular AEA uptake assay. […] The filters-bound radioactivity was measured using a Beckman LS6500 scintillation counter. Results were expressed as % of AEA uptake versus cells treated with solvent and the EC50 and IC50 values were calculated from the sigmoidal curves, which were generated using the GraphPad Prism (GraphPad Software, San Diego, CA, US).

NO2^- production = test: NO2- production in LPS-stimulated human macrophages (Griess reagent); type: cell-based; settings: Figure 5; LPS 500 ng/ml; 5 µM for 18 h
Protocol: (§1) • Figure 1: AEA re-uptake inhibition of 2E,4E-dieneamides 1 and 9 into human primary monocytes and U937 cells. […] Data are mean values ± SEM of 3 independent experiments in a sigmoidal dose-response curve. • Figure 2: Concentration-dependent effects of 4 and 5 on FAAH activity. […] The maximal inhibition (32%) of 5 was measured at 1 µM. Data are mean values ± SEM of 3 independent experiments. • Figure 3: Effects of low nM concentrations of N-alkylamide 7 on FAAH activity alone and in combination with the FAAH inhibitor URB597. […] Data are mean values ± SEM of 3 independent experiments. • Figure 4: 1 and 9 inhibit LPS-induced TNF-alpha release into culture medium (measured by ELISA). Human macrophages (10^6 cells) were stimulated with LPS (500 ng/ml) and treated with UCM707 and/or compounds 1 and 9 at 5 µM for 18 h. N = 3 ± SEM. • Figure 5: UCM707 (positive control) and compounds 1 and 9 diminish NO2^- production. Human macrophages (10^6 cells) were stimulated with LPS (500 ng/ml) and treated with UCM707 and/or compounds 1 and 9 at 5 µM for 18 h. Culture supernatants were assayed for nitrite levels, using the Griess reagent as a reflection of NO production. Results are the mean ± SEM of four independent experiments performed in duplicate • Figure 6: In CB receptor expressing human HaCaT keratinocytes (10^6 cells) UCM707 (control) 1 and 9 like the endocannabinoid anandamide (each 5 µM) inhibited tolerogen (10 µg/ml) induced chemokine IL-8 (6h stimulation and incubation). N = 3 ± SEM.

IL-8 = test: Induced chemokine IL-8 in HaCaT keratinocytes; type: cell-based, human; settings: Figure 6, 5 µM, tolerogen 10 µg/ml, 6h
Protocol: as §1

CB1 = biological target: T1, CB1 (Homo sapiens, UniProt P21554); test: Radioligand displacement assay on CB1 receptor; type: binding
T1 construct: purchased Perkin Elmer RBHCB1M
Protocol: (§2) For the CB1 receptor, binding experiments were performed in the presence of 0.39 nM of the radioligand [^3H]CP55,940 (168 Ci/mmol) (Perkin Elmer, Waltham, MA, US) at 30°C in siliconized glass vials together with 7.16 µg of membrane recombinantly over-expressing CB1 (No. RBHCB1M, Perkin Elmer, Waltham, MA, US), which was resuspended in 0.2 mL (final volume) binding-buffer (50 mM TRIS-HCl, 2.5 mM EGTA, 5 mM MgCl2, 0.5 mg/mL fatty acid free BSA, pH 7.4). Test compounds were present at varying concentrations and the nonspecific binding of the radioligand was determined in the presence of 10 µM CP55,940 (Tocris Cookson Ltd., Bristol, UK). After 1.5 h incubation, the suspension was rapidly filtered through 0.05% polyethylenimine pre-soaked GF/C glass fiber filters on a 96-well cell harvester and washed nine times with 0.5 mL ice-cold washing-buffer (50 mM TRIS-HCl, 2.5 mM EGTA, 5 mM MgCl2, 2% BSA, pH 7.4). Radioactivity on filters was measured with a Beckman LS 6500 scintillation counter in 3 mL Ultima Gold scintillation liquid (Perkin Elmer, Waltham, MA, US). Data collected from three independent experiments performed in triplicates were normalized between 100% and 0% specific binding for [^3H]CP55,940. […] Derived from the dissociation constant (KD) of [^3H]CP55,940 and the concentration-dependent displacement (IC50 value), inhibition constants (Ki) of competitor compounds were calculated using the Cheng-Prusoff equation [Ki = IC50/(1+ L/KD)].

[2] = Critical micelle concentration (CMC) measurement, dye micellization; type: physicochemical; settings: fluorescein dye micellization in water, pH 6.9, room temperature
Protocol: Dye micellization was carried out with a modified version of the method described by Eliyahu et al., Novel dextran-spermine conjugates as transfecting agents: comparing water-soluble and micellar polymers. […] Experiments were carried out on 96-well microtiter plates (excitation at 485 nm, emission at 535 nm). Since the emission of fluorescein is pH-dependent, the pH of the mixture was kept constant at 6.9. The CMC range was determined as the concentration range where the first statistically significant increase in fluorescence was detected.

FAAH = biological target: T2, FAAH (Sus scrofa, UniProt Q9TUI8); test: Fatty acid amide hydrolase (FAAH) inhibition, pig brain homogenate (assay D); type: biochemical; settings: 1 µM; pig brain homogenate (assay D)
T2 construct: 165 µl of diluted pig brain homogenate; from tissue; host or cells: pig brain homogenate
T2 sequence (Q9TUI8 1-579): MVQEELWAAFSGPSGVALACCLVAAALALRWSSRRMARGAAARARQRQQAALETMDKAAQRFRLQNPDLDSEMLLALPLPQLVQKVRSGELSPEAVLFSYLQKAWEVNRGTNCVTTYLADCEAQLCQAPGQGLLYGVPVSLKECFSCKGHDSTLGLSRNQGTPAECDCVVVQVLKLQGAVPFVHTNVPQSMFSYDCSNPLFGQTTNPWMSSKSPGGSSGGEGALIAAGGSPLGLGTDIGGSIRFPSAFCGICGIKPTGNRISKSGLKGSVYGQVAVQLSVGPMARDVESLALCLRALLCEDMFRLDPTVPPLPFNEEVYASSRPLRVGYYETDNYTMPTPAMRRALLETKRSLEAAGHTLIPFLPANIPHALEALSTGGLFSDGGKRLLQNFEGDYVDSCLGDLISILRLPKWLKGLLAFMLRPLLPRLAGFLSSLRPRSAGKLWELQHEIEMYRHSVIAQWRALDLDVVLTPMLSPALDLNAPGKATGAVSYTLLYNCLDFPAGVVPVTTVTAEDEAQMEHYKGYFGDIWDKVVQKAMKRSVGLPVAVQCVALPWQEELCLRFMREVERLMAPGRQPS
Protocol: FAAH activity was assessed using pig brain homogenate according to the method described by Omeir et al., Arachidonoyl ethanolamide-[1,2-14C] as a substrate for anandamide amidase. Life Sci. 1995;56(23-24):1999-2005, and adapted by Fowler et al., Ibuprofen inhibits rat brain deamidation of anandamide at pharmacologically relevant concentrations. Mode of inhibition and structure-activity relationship. J Pharmacol Exp Ther. 1997 Nov;283(2):729-34. Briefly, 10 µl of test compounds at the adequate concentration or solvent were incubated at 37°C for 20 min with 165 µl of diluted pig brain homogenate in 10 mM Tris-HCl and 1 mM EDTA, pH 7.6 (corresponding to 100 µg/ml of total protein), 1% w/v fatty acid free BSA (Sigma, San Louis, MO, US) and 25 µl of a mixture 1:1 of nonradioactive AEA [^3H]-AEA (60 Ci mmol^-1) (concentration in the assay was 2 µM). Successively, 400 µl of a mixture 1:1 (v/v) of methanol:chloroform was added at each sample and, after vigorous vortexing, aqueous and organic phases were separated by centrifugation at 10000 rpm for 10 min. The radioactivity associated to the [^3H]-ethanolamine (produced by FAAH-catalysed breakdown of [^3H]-AEA) was measured upon addition of 3 ml of Ultima Gold scintillation liquid (Perkin Elmer, Waltham, MA, US) to 200 µl of the aqueous (upper) phase, using a Beckman LS6500 scintillation counter. Results were expressed as % of FAAH activity vs. pig brain homogenate treated only with solvent.

[3] = test system: Arachidonoylethanolamide Transport (AEAT); test: Cellular uptake of [3H]-AEA in U937 cells (assay C); type: cell-based; settings: Homo sapiens, U-937; [3H]-AEA uptake, assay C (Tables 2 and 3)
CB2 = CB2 (Homo sapiens, UniProt P34972); test: Radioligand displacement assay on CB2 receptor; type: binding; parameters: purchased Perkin Elmer RBXCB2M
Protocol: as §2
For CB2-receptor binding studies 3.8 µg of membrane recombinantly over-expressing CB2 (No. RBXCB2M, Perkin Elmer, Waltham, MA, US) were resuspended in 0.6 mL binding buffer (see above) together with 0.11 nM of the radioligand [^3H]CP55,940. The CB2-binding assay was conducted in the same manner as for CB1.

T1 sequence (P21554 whole entry): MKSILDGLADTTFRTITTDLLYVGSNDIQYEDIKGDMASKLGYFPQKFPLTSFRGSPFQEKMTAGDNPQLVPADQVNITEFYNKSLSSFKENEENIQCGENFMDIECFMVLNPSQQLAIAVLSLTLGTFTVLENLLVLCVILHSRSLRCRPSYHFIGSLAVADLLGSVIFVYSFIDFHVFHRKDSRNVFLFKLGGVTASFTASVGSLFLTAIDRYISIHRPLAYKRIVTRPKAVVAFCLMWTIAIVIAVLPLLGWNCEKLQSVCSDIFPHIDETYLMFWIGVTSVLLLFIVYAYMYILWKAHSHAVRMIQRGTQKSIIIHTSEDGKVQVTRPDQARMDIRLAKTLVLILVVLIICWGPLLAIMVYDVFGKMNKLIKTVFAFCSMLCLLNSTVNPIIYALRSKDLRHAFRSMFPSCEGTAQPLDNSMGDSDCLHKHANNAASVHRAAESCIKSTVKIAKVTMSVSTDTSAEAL
CB2, sequence (P34972 whole entry): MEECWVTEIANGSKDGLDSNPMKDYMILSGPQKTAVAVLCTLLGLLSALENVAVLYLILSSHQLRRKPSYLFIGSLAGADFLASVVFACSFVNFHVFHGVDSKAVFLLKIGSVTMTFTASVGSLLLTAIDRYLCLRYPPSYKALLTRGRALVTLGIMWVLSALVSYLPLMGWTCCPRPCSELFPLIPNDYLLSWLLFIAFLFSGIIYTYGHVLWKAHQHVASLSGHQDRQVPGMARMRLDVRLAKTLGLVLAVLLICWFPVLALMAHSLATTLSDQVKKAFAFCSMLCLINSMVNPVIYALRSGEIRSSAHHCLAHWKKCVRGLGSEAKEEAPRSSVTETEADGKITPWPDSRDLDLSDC

Question: For `CCCCC/C=C\C/C=C\C/C=C\C/C=C\CCCC(=O)NCc1ccoc1` [UCM707, reference compound], which EC50 [1] is on record?
Answer: Its EC50 is 1420 ± 296 nM.

Question: What about the “[3H]-AEA uptake inhibition” value ([3H]-AEA uptake) of the same compound?
Answer: The value was “clearly less active”.

Question: And the “NO2^- production” value (NO2^- production)?
Answer: Its value is “diminish”.

Question: And the “tolerogen induced chemokine IL-8” value (IL-8)?
Answer: The value was “inhibited”.

Question: For `CCCCCCC/C=C/C=C/C(=O)N1CCCC1` [Compound D, (2E,4E)-1-(pyrrolidin-1-yl)dodeca-2,4-dien-1-one], which Ki (CB1; displacement of 0.39 nM [3H]CP55,940, membrane recombinantly over-expressing CB1, read-out: Receptor affinity Ki CB1) is on record?
Answer: Its Ki is over 20000 nM.

Question: And the CMC [2]?
Answer: The CMC was over 5 µM.

Question: What about the “FAAH inhibition at 1 µM” value (FAAH) of the same compound?
Answer: Its value is <10 % of control.

Question: And the EC50 [3]?
Answer: The EC50 was over 10 µM.

Question: What about the Ki (CB2; displacement of 0.11 nM [3H]CP55,940, membrane recombinantly over-expressing CB2, read-out: Receptor affinity Ki CB2) of the same compound?
Answer: Its Ki is under 10000 nM.

Question: What does the source list for `CCCCCCC/C=C/C=C/C(=O)NCC(C)CC` (racemic) [Compound B, (2E,4E)-N-(2-methylbutyl)dodeca-2,4-diene amide]?
Answer: Ki (CB1): 1510 ± 214 nM; affinity towards CB1 (in words) (CB1; summary of Table 3): moderate affinity; CMC [2]: >5 µM; FAAH inhibition at 1 µM (FAAH): <10 % of control; EC50 [3]: > 10 µM; Ki (CB2): 1100 ± 84 nM; affinity towards CB2 (in words) (CB2; summary of Table 3): moderate affinity

Question: For `CCCCC/C=C\C/C=C\C/C=C\C/C=C\CCCC(=O)NCCO` [anandamide, N-arachidonoylethanolamide, reference compound], which “tolerogen induced chemokine IL-8” value (IL-8) is on record?
Answer: Its value is “inhibited”.
